21 compounds from patent US11014908B2, “Chemical compounds” (Pfizer Inc., priority 2018, dated 2021) can be followed below.

The target of one experiment is T1, HbS (Homo sapiens, UniProt P68871+P69905, E7V).
T1 construct: HbS was obtained from the blood of homozygous S/S patients; from tissue; host or cells: red blood cells of homozygous S/S patients
Kind of experiment: 'R'-'T' assay (conversion of oxy HbS to deoxy HbS under deoxygenating conditions). Particulars: 50% inhibition of HbS 'R'-'T' conversion; 3 uM HbS, <1% O2. Type of experiment: biochemical. As to the method:
Conversion from oxy (R, relaxed state) to deoxy (T, tense state) HbS in the presence of compound was performed to determine the ability of compounds to stabilize the oxy (R) state under deoxygenating conditions. The assay run was similar to the ‘Oxygen dissociation assay’ described in Oksenberg et al, Br J Haematology, 2016, 175, 141-153.
Assay ready compound plates were prepared by first preparing a master serial dilution plate from a 30 mM initial compound stock in 100% DMSO. From this master serial dilution plate, 167 nL of the desired compound concentration was delivered to the assay ready plates using acoustical dispensing. Plates were frozen at −20° C. until needed. Purified HbS-O2 (i.e. oxy HbS) was diluted to 3 uM in 100 mM potassium phosphate buffer, pH=7.4. 50 uL of 3 uM stock solution was added to each well of the assay ready plate and mechanically mixed eight times. Following mixing the plates were covered and incubated at room temperature for one hour with moderate shaking. Following incubation, the plates were placed in a deoxygenated environment (<1% O2) for two hours, and the conversion to deoxy HbS monitored as a function of time. Oxygenated and deoxygenated forms of hemoglobin were detected using the absorbance of the Soret peaks at 415 and 430 nm respectively, and absorbance measurements (optical density, OD) were taken at 0, 90 and 120 minutes. Background absorbance for correction was collected at 700 nm.
Data were analyzed by first subtracting baseline absorbance at 700 nm from 415 nm and 430 nm data at each timepoint, and then taking the ratio of 415/430 nm data (Ratio=[(OD415−OD700)/(OD430−OD700)]. The effect at each timepoint was calculated using the ratios from the previous calculation at time 0 and each time point of interest (Effect^time x=Ratio^time x/Ratio^time 0). Percent effect was calculated by comparing the effects of compound versus HbS only with the effects observed by the positive control compound tucaresol (percent effect=[(effect^time x compound−effect^time x HbS)/(effect^time x tucaresol−effect^time x HbS)]×100). Data were reported as the percent effect for a single point. Calculations to determine the concentration of compound for 50% inhibition (IC50 (uM)) of the HbS ‘R’-‘T’ conversion were based on the percent effect at varying compound concentration.

Experiment [1] addresses T2, purified sickle cell hemoglobin (HbS) (Homo sapiens, UniProt P68871+P69905, E7V).
T2 construct: HbS was obtained from the blood of homozygous S/S patients; from tissue; host or cells: red blood cells of homozygous S/S patients
Kind of experiment: Binding affinity to purified HbS by Surface Plasmon Resonance (SPR). To be noted: crosslinked biotinylated HbS, 1:1 binding model. As to the method: Binding Affinity, Kd (uM)
The binding affinity for compounds to purified sickle cell hemoglobin (HbS) was determined using Surface Plasmon Resonance (SPR). Patient Sickle Cell blood was obtained from Boston Children's Hospital in accordance with Institutional Review Board protocols. HbS was obtained from the blood of homozygous S/S patients, and purified using the method described in: Antonini and Brunori, Hemoglobin and Myoglobin in their Reactions with Ligands. Amsterdam, London, North-Holland Publishing Company, 1971. Whole blood was separated into red blood cell and plasma components by centrifugation, after which the plasma was decanted and discarded. Packed red blood cells were washed with normal saline (0.9% NaCl) and then lysed by 2:1 dilution with cold deionized water. The hemolysate was centrifuged to remove cellular debris, and further purified with the addition of Drabkin's Buffer (2.8 M potassium phosphate), and centrifugation with Celite®. Organic phosphates (2,3-BPG) were removed via gel filtration with Sephadex® G-25. HbS and wild-type hemoglobin, hemoglobin A (HbA), were separated by […], using diethylaminoethyl (DEAE)-Sepharose® fast flow, and eluted using a pH gradient from pH 8.5-pH 7.5. Purity of the resulting HbS and HbA was determined by native gel electrophoresis and HbS fractions used further.
To stabilize the tetrameric structure of hemoglobin, HbS was crosslinked between the beta subunits (Lys82-Lys82) using bis(3,5-dibromosalicyl) fumarate, as described in: Shibayama N. et al, J Am Chem Soc 2014, 136, 13, 5097-5105 and Shibayama N. et al, Biochemistry 1991, 39, 33, 8158-8165). Crosslinked HbS was subsequently biotynylated and captured on a custom made Streptavidin sensor to achieve protein density of 4000 to 5000 resonance units (RUs) on the surface. Compound binding to HbS using SPR was tested on Sierra Sensors MASS-1 instrument. The running buffer contained 100 mM Potassium Phosphate, pH 7.5, 0.005% Tween-20, 1 mM ethylenediaminetetraacetic acid (EDTA), 0.1 mg/mL bovine serum albumin with 1% DMSO. Compound samples were injected at a flow rate of 30 μL/min for 2 minutes association and at least 5 minutes of dissociation time. A 2- or 3-fold dilution series containing at least 4 concentrations were tested for each compound. The dose range was selected based on the activity of the compounds in biochemical assays, when available. Multiple blank injections of running buffer were run before and after each compound series to allow blank subtraction for compound data in the analysis software. Positive controls were run in each experiment to monitor and maintain the activity of HbS on the surface. A DMSO curve was run at the beginning of each data set to apply an excluded volume correction to the data during analysis. The data were processed and analyzed using Sierra Sensors and Scrubber 2.0 software. The binding affinities (dissociation constant Kd) were calculated by fitting the sensorgrams to a 1:1 binding model.

The term IC50 denotes the concentration needed to halve the response being measured. The low end stands for greater potency in that assay, the high end for weaker potency in that assay. In general, Kd refers to the equilibrium constant for the complex coming apart. Higher therefore signals a looser complex. In turn, `COc1ccc(-n2cccn2)c([C@H](C)Oc2cc3cc(F)cc(F)c3nc2N)n1` [Example 56, 6,8-difluoro-3-{(1S)-1-[6-methoxy-3-(1H-pyrazol-1-yl)pyridin-2-yl]ethoxy}quinolin-2-amine] had an IC50 on HbS of 5.68 µM. In addition, the Kd in experiment [1] is 0.053 µM.
On the same counts, the results for `C[C@H](Oc1cc2cc(F)ccc2nc1N)c1cc(-c2n[nH]c(=O)o2)ccc1-n1cccn1` [Example 5, 5-[3-{(1S)-1-[(2-amino-6-fluoroquinolin-3-yl)oxy]ethyl}-4-(1H-pyrazol-1-yl)phenyl]-1,3,4-oxadiazol-2(3H)-one] are 4.38 µM and 0.014 µM.
`C[C@H](Oc1cc2cc(F)cc(F)c2nc1N)c1ncc(F)cc1-n1cccn1` [Example 38, 6,8-difluoro-3-{(1S)-1-[5-fluoro-3-(1H-pyrazol-1-yl)pyridin-2-yl]ethoxy}quinolin-2-amine] gave an IC50 on HbS of 3.62 µM. In experiment [1], this compound registered a dissociation constant (Kd) of 0.045 µM.
In the same order, the values of `C[C@H](Oc1cc2cc(F)ccc2nc1N)c1cc(OCC(=O)O)ccc1-n1cccn1` [Example 15, [3-{(1S)-1-[(2-amino-6-fluoroquinolin-3-yl)oxy]ethyl}-4-(1H-pyrazol-1-yl)phenoxy]acetic Acid] are 3.89 µM and 0.063 µM.
In the same order, the values of `C[C@H](Oc1cc2cc(C(N)=O)cc(F)c2nc1N)c1ncc(F)cc1-n1cccn1` [Example 35, 2-amino-8-fluoro-3-{(1S)-1-[5-fluoro-3-(1H-pyrazol-1-yl)pyridin-2-yl]ethoxy}quinoline-6-carboxamide] are 3.93 µM and 0.068 µM.
`C[C@H](Oc1cc2ccccc2nc1N)c1ncc(F)cc1-n1cccn1` [Example 45, 3-{(1S)-1-[5-fluoro-3-(1H-pyrazol-1-yl)pyridin-2-yl]ethoxy}quinolin-2-amine]: at HbS, the concentration for half-maximal inhibition (IC50) is 5.58 µM. The compound further displayed a Kd in experiment [1] of 0.185 µM.
On the same counts, the results for `C[C@H](Oc1cc2cc(F)ccc2nc1N)c1cc(CCC(=O)O)ccc1-n1cccn1` [Example 16, 3-[3-{(1S)-1-[(2-amino-6-fluoroquinolin-3-yl)oxy]ethyl}-4-(1H-pyrazol-1-yl)phenyl]propanoic Acid] are 3.6 µM and 0.188 µM.
In the same order, the values of `COCCNC(=O)c1ccc(-n2cccn2)c([C@H](C)Oc2cc3cc(F)ccc3nc2N)c1` [Example 11, 3-{(1S)-1-[(2-amino-6-fluoroquinolin-3-yl)oxy]ethyl}-N-(2-methoxyethyl)-4-(1H-pyrazol-1-yl)benzamide] are 4.35 µM and 0.061 µM.
On the same counts, the results for `C[C@H](Oc1cc2cc(F)ccc2nc1N)c1cc2c(cnn2CC(=O)O)cc1-n1cccn1` [Example 67, [6-{(1S)-1-[(2-amino-6-fluoroquinolin-3-yl)oxy]ethyl}-5-(1H-pyrazol-1-yl)-1H-indazol-1-yl]acetic Acid] are 3.71 µM and 0.009 µM.
Compound `C[C@H](Oc1cc2cc(F)ccc2nc1N)c1cc2c(cnn2CCO)cc1-n1cccn1` [Example 73, 2-[6-{(1S)-1-[(2-amino-6-fluoroquinolin-3-yl)oxy]ethyl}-5-(1H-pyrazol-1-yl)-1H-indazol-1-yl]ethanol] yielded an IC50 against HbS of 4.51 µM. This compound registered a dissociation constant Kd in experiment [1] of 0.02 µM.
In the same order, the values of `C[C@H](Oc1cc2cc(F)ccc2nc1N)c1nc(C(=O)O)ccc1-n1cccn1` [Example 37, 6-{(1S)-1-[(2-amino-6-fluoroquinolin-3-yl)oxy]ethyl}-5-(1H-pyrazol-1-yl)pyridine-2-carboxylic Acid] are 6.77 µM and 0.579 µM.
As to `Cc1cc2nc(N)c(O[C@@H](C)c3nc4[nH]ncc4cc3-n3cccn3)cc2cn1` [Example 75, 7-methyl-3-{(1S)-1-[5-(1H-pyrazol-1-yl)-1H-pyrazolo[3,4-b]pyridin-6-yl]ethoxy}-1,6-naphthyridin-2-amine], at HbS, the IC50 turned out to be 3.76 µM. The compound further gave a Kd in experiment [1] of 0.036 µM.
At HbS, `C[C@H](Oc1cc2cc(F)ccc2nc1N)c1cc2[nH]cnc2cc1-n1cccn1` [Example 63, 6-fluoro-3-{(1S)-1-[5-(1H-pyrazol-1-yl)-1H-benzimidazol-6-yl]ethoxy}quinolin-2-amine] returned an IC50 of 8.36 µM. The compound further displayed a Kd in experiment [1] of 0.152 µM.
On the same counts, the results for `C[C@H](Oc1cc2cc(Br)ccc2nc1N)c1cc(C(N)=O)ccc1-n1cccn1` (single isomer, unassigned) [Example 3] are 5.06 µM and 0.067 µM.
In the same order, the values of `C[C@H](Oc1cc2cc(F)ccc2nc1N)c1cc(C(=O)O)c(F)cc1-n1cccn1` [Example 9, 5-{(1S)-1-[(2-amino-6-fluoroquinolin-3-yl)oxy]ethyl}-2-fluoro-4-(1H-pyrazol-1-yl)benzoic Acid] are 4.72 µM and 0.087 µM.
In the same order, the values of `C[C@H](Oc1cc2cc(C(N)=O)ccc2nc1N)c1ncccc1-n1cccn1` [Example 30, 2-amino-3-{(1S)-1-[3-(1H-pyrazol-1-yl)pyridin-2-yl]ethoxy}quinoline-6-carboxamide] are 6.25 µM and 1.51 µM.
For `C[C@H](Oc1cc2cc(F)cc(F)c2nc1N)c1cc(C(=O)NS(C)(=O)=O)ccc1-n1cccn1` [Example 24, 3-{(1S)-1-[(2-amino-6,8-difluoroquinolin-3-yl)oxy]ethyl}-N-(methylsulfonyl)-4-(1H-pyrazol-1-yl)benzamide], the IC50 on HbS is 4.66 µM. The Kd in experiment [1] turned out to be 0.015 µM.
In the same order, the values of `C[C@H](Oc1cc2cc(F)c(Cl)cc2nc1N)c1ncc(F)cc1-n1cccn1` [Example 31, 7-chloro-6-fluoro-3-{(1S)-1-[5-fluoro-3-(1H-pyrazol-1-yl)pyridin-2-yl]ethoxy}quinolin-2-amine] are 4.96 µM and 0.069 µM.
With `C[C@H](Oc1cc2cc(C(N)=O)ccc2nc1N)c1nc(O)ccc1-n1cccn1` [Example 44, 2-amino-3-{(1S)-1-[6-hydroxy-3-(1H-pyrazol-1-yl)pyridin-2-yl]ethoxy}quinoline-6-carboxamide], the midpoint of inhibition at HbS, the IC50, lay at 4.4 µM. Also, the dissociation constant Kd in experiment [1] was 0.063 µM.
As for `C[C@H](Oc1cc2c(F)ccc(F)c2nc1N)c1cc(C(=O)O)ccc1-n1cccn1` [Example 19, 3-{(1S)-1-[(2-amino-5,8-difluoroquinolin-3-yl)oxy]ethyl}-4-(1H-pyrazol-1-yl)benzoic Acid], the 50% inhibitory concentration (IC50) against HbS was found to be 4.5 µM. In experiment [1], this compound registered a Kd of 0.064 µM.
In the same order, the values of `C[C@H](Oc1cc2cc(F)ccc2nc1N)c1cc(NS(C)(=O)=O)ccc1-n1cccn1` [Example 18, N-[3-{(1S)-1-[(2-amino-6-fluoroquinolin-3-yl)oxy]ethyl}-4-(1H-pyrazol-1-yl)phenyl]methanesulfonamide] are 7.16 µM and 0.194 µM.
